Legend:
[1] = molecular target: 5'-AMP-activated protein kinase catalytic subunit alpha-2 (Homo sapiens) (UniProt P54646)
[2] = molecular target: Calcium/calmodulin-dependent protein kinase type II subunit beta (Homo sapiens) (UniProt Q13554)
[3] = molecular target: T1, Calcium/calmodulin-dependent protein kinase type IV (Homo sapiens) (UniProt Q16566)
T1 sequence (whole entry): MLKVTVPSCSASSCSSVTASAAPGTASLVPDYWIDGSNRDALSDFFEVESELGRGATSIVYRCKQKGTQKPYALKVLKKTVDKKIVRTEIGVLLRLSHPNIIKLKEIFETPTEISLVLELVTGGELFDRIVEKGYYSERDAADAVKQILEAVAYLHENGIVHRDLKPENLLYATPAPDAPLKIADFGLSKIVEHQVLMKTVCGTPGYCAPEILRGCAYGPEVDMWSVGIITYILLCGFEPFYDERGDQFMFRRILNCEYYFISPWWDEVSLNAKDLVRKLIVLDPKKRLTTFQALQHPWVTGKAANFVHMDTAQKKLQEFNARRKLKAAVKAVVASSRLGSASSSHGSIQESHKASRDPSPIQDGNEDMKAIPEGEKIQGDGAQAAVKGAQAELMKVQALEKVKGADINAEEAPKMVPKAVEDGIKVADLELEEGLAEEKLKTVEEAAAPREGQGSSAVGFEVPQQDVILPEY

[4] = molecular target: Cyclin-dependent kinase 6 (Homo sapiens) (UniProt Q00534)
[5] = molecular target: Cyclin-dependent kinase-like 1 (Homo sapiens) (UniProt Q00532)
[6] = molecular target: Serine/threonine-protein kinase Chk2 (Homo sapiens, UniProt O96017)
[7] = molecular target: Dual specificity protein kinase CLK1 (Homo sapiens) (UniProt P49759)
[8] = molecular target: Dual specificity protein kinase CLK2 (Homo sapiens) (UniProt P49760)
[9] = molecular target: Death-associated protein kinase 3 (Homo sapiens) (UniProt O43293)
[10] = molecular target: T2, Myotonin-protein kinase (Homo sapiens) (UniProt Q09013)
T2 sequence (whole entry): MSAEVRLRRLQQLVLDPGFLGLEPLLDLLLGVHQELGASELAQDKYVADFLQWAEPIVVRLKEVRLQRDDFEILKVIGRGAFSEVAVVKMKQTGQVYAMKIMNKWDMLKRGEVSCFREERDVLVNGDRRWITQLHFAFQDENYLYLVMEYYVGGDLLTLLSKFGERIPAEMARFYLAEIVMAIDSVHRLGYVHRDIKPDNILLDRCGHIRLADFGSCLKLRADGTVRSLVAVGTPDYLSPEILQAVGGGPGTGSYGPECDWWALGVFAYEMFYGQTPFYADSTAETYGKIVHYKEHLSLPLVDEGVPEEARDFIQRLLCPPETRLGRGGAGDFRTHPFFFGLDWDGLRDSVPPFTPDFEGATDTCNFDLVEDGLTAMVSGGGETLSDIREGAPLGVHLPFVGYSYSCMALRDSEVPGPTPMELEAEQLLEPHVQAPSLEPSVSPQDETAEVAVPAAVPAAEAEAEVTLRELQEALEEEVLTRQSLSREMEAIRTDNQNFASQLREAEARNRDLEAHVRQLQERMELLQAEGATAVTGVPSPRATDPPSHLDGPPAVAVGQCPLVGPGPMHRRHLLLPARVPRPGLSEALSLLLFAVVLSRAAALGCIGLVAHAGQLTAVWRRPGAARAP

[11] = molecular target: Tyrosine-protein kinase JAK1 (Homo sapiens) (UniProt P23458)
[12] = molecular target: Mitogen-activated protein kinase 3 (Homo sapiens, UniProt P27361)
[13] = molecular target: Serine/threonine-protein kinase PLK1 (Homo sapiens) (UniProt P53350)
[14] = molecular target: cAMP-dependent protein kinase catalytic subunit alpha (Homo sapiens) (UniProt P17612)
[15] = molecular target: Ribosomal protein S6 kinase alpha-3 (Homo sapiens) (UniProt P51812)
[16] = molecular target: Serine/threonine-protein kinase 16 (Homo sapiens) (UniProt O75716)
[17] = molecular target: Serine/threonine-protein kinase 26 (Homo sapiens) (UniProt Q9P289)
[18] = molecular target: T3, Serine/threonine-protein kinase VRK1 (Homo sapiens) (UniProt Q99986)
T3 sequence (whole entry): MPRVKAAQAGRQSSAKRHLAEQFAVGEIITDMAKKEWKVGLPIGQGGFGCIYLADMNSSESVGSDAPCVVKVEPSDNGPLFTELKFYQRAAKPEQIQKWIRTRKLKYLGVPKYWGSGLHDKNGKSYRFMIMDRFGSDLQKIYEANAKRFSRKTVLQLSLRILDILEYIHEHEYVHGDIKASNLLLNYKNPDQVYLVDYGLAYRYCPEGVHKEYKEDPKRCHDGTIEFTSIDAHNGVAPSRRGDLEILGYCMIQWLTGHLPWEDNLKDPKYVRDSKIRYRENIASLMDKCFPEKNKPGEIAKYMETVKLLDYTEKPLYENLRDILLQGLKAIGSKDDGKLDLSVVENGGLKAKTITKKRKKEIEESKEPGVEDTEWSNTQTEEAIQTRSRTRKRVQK

Sequence of Calcium/calmodulin-dependent protein kinase type II subunit beta (Homo sapiens) (Q13554 whole entry): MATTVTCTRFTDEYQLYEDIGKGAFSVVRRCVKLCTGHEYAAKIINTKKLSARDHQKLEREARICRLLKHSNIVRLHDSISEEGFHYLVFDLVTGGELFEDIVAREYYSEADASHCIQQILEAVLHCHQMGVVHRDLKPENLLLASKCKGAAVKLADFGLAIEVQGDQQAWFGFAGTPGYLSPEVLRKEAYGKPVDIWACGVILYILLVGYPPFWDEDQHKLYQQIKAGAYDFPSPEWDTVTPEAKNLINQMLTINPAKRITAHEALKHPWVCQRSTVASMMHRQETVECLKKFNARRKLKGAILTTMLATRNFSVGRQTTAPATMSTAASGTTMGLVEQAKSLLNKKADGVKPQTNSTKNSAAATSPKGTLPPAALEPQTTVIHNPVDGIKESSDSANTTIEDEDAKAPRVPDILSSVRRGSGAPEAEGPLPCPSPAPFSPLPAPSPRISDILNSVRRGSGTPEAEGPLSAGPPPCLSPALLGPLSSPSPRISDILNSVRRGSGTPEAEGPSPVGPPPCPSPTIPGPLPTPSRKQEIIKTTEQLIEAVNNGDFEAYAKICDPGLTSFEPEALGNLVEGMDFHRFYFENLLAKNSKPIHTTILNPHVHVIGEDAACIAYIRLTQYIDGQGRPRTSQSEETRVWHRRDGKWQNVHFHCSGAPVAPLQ
Sequence of 5'-AMP-activated protein kinase catalytic subunit alpha-2 (Homo sapiens) (P54646 whole entry, looked up): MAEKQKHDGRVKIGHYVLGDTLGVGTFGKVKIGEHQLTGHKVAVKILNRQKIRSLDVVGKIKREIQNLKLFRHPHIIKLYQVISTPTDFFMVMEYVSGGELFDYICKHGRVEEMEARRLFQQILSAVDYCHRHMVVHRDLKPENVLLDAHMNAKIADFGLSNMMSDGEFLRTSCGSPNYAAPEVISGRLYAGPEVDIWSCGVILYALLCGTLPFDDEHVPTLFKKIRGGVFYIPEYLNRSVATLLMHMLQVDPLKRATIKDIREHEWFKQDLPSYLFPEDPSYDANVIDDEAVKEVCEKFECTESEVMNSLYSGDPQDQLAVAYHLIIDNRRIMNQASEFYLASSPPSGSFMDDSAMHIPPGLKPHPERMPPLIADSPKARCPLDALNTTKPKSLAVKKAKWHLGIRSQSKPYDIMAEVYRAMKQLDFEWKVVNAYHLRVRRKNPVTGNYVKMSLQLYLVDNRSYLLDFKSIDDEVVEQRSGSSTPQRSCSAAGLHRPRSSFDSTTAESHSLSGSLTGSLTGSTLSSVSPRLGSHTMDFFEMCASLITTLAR
Sequence of Dual specificity protein kinase CLK1 (Homo sapiens) (P49759 whole entry, looked up): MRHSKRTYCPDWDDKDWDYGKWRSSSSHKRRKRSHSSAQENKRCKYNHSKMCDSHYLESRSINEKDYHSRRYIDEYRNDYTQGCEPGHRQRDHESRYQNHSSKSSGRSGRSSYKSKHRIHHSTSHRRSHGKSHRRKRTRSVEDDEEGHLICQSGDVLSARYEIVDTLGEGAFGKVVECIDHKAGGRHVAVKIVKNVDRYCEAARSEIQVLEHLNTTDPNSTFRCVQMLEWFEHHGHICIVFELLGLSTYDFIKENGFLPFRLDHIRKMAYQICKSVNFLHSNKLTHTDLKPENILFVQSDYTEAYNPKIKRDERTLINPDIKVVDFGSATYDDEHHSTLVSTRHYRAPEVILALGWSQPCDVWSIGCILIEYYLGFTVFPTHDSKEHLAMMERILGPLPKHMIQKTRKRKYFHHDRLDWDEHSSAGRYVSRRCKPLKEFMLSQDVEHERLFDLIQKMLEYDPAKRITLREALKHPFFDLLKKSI
Sequence of Death-associated protein kinase 3 (Homo sapiens) (O43293 whole entry, looked up): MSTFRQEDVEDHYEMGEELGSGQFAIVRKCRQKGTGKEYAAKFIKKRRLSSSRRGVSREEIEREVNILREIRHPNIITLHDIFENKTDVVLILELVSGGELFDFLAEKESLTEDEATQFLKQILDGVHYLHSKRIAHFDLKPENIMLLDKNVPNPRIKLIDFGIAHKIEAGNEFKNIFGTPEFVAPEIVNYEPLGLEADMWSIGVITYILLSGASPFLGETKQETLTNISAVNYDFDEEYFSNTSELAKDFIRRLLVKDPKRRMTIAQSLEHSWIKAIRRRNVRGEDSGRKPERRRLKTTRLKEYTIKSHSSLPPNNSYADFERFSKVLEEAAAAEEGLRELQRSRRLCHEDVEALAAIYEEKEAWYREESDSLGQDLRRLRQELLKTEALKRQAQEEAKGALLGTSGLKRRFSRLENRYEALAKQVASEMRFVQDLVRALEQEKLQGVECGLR
Sequence of Serine/threonine-protein kinase PLK1 (Homo sapiens) (P53350 whole entry): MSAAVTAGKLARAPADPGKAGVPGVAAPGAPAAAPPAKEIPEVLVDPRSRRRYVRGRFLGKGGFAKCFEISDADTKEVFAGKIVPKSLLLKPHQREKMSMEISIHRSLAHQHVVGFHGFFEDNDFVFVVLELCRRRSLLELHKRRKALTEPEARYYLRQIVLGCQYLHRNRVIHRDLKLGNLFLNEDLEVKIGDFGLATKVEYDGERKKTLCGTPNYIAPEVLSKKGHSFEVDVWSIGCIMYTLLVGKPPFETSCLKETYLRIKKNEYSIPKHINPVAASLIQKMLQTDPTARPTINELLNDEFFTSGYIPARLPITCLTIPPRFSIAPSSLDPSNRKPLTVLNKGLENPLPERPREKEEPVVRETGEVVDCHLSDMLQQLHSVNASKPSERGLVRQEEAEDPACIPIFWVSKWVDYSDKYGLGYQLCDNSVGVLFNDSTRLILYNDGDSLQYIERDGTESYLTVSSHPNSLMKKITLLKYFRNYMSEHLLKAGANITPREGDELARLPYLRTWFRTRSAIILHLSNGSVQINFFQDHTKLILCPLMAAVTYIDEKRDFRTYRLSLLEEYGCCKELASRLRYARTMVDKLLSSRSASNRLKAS
Sequence of Mitogen-activated protein kinase 3 (P27361 whole entry): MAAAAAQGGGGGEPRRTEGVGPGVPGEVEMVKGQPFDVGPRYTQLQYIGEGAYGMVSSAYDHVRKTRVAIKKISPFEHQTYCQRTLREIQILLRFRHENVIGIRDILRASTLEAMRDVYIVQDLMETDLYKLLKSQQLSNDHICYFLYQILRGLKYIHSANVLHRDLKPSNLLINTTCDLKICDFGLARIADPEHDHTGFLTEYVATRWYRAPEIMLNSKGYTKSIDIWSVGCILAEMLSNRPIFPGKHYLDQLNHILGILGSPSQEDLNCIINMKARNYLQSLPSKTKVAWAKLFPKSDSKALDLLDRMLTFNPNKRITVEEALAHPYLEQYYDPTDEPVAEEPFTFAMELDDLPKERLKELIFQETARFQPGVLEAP
Sequence of Tyrosine-protein kinase JAK1 (Homo sapiens) (P23458 whole entry): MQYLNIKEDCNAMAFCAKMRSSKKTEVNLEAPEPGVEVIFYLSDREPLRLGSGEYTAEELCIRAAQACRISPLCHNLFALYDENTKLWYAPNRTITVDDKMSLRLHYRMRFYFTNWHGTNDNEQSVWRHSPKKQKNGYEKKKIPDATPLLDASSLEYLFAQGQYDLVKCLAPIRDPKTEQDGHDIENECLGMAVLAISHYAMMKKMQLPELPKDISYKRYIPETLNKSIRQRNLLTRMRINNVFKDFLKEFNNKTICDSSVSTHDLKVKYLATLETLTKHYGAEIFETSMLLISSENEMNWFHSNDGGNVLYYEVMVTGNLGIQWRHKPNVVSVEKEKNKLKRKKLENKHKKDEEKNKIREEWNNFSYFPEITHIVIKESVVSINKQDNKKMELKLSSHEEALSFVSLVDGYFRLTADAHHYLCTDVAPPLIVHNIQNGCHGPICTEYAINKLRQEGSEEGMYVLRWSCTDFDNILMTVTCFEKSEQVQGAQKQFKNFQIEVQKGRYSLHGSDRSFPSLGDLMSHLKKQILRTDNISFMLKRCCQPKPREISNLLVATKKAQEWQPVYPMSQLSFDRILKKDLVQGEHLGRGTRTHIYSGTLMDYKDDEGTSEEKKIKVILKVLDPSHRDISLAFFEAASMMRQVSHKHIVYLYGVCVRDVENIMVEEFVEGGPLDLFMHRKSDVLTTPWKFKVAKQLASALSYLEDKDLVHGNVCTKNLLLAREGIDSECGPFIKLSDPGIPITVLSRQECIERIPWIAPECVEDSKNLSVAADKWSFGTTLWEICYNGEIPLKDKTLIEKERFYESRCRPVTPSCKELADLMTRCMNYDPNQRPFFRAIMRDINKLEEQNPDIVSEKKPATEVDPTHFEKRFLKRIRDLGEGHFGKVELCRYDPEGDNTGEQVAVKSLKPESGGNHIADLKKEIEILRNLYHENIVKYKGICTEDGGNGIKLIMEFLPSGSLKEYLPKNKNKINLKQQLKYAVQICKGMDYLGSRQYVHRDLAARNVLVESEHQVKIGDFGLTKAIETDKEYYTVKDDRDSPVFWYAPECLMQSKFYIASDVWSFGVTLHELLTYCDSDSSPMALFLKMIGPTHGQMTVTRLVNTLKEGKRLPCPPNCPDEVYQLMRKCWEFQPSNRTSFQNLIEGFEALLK
Sequence of Serine/threonine-protein kinase Chk2 (O96017 whole entry): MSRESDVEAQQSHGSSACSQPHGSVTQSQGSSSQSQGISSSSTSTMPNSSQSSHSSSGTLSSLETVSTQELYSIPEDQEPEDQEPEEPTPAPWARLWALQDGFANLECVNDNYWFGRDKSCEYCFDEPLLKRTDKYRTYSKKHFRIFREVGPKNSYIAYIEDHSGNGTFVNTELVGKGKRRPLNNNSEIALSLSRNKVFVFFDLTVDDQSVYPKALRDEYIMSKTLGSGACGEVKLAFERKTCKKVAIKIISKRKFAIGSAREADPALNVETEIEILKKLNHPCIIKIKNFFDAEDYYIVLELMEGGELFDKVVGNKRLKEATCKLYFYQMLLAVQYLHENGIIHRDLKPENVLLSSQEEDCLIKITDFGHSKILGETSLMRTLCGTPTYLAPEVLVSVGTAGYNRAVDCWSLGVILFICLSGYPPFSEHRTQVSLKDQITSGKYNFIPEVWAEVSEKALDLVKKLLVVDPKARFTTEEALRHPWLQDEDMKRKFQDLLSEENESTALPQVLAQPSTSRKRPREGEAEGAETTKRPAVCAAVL

| Structure (SMILES) | ΔTm [1] | ΔTm [2] | ΔTm [3] | ΔTm [4] | ΔTm [5] | ΔTm [6] | ΔTm [7] | ΔTm [8] | ΔTm [10] | ΔTm [11] | ΔTm [12] | ΔTm [13] | ΔTm [14] | ΔTm [15] | ΔTm [16] | ΔTm [17] | ΔTm [18] | ΔTm [9] |
| --- | --- | --- | --- | --- | --- | --- | --- | --- | --- | --- | --- | --- | --- | --- | --- | --- | --- | --- |
| O=c1c(-c2ccc(F)cc2)c(-c2ccncc2)[nH]n1-c1ccc(Cl)cc1 | 0.2 °C | 0 °C | 0.4 °C | 0.6 °C | 0.4 °C | 0.3 °C | 1 °C | 0.8 °C | 0.5 °C | 0.3 °C | 1.2 °C | 0.3 °C | 1.5 °C | 0 °C | 0.1 °C | 0.6 °C | 0.8 °C | 0.6 °C |
| CCN(CC)CCNC(=O)c1c(C)[nH]c(/C=C2\C(=O)Nc3ccc(F)cc32)c1C | 7.4 °C | 2.2 °C | 6 °C | 2.1 °C | 0.5 °C | 12.9 °C | 5.1 °C | 5.9 °C | 2.7 °C | 5.5 °C | 0.9 °C | 1.5 °C | 9.2 °C | 8.6 °C | 3.3 °C | -0.1 °C | 6.8 °C | 0.3 °C |
| Cc1cc2ncc(-c3ccccc3)nc2cc1C | -1 °C | 0.8 °C | 0.4 °C | 0.4 °C | -0.3 °C | -0.3 °C | 1.4 °C | 0.7 °C | 1.2 °C | 1.3 °C | -0.6 °C | 0.7 °C | 1.1 °C | -0.1 °C | 0.5 °C | 1.2 °C | 1.2 °C | -0.1 °C |
| N#C/C(=C\c1ccc(O)c(O)c1)C(=O)Nc1ccccc1 | -0.3 °C | 0.2 °C | 0.6 °C | 0.4 °C | -0.1 °C | 0.1 °C | 1 °C | 0.9 °C | -0.1 °C | 0.8 °C | 0.5 °C | 0.7 °C | 0.4 °C | 0.8 °C | 0.1 °C | 0.4 °C | 0.2 °C | 1.4 °C |

Second part, led by results:

| ΔTm [1] | ΔTm [2] | ΔTm [3] | ΔTm [4] | ΔTm [5] | ΔTm [6] | ΔTm [7] | ΔTm [8] | ΔTm [10] | ΔTm [11] | ΔTm [12] | ΔTm [13] | ΔTm [14] | ΔTm [15] | ΔTm [16] | ΔTm [17] | ΔTm [18] | Structure (SMILES) | ΔTm [9] |
| --- | --- | --- | --- | --- | --- | --- | --- | --- | --- | --- | --- | --- | --- | --- | --- | --- | --- | --- |
| 1.2 °C | 1.2 °C | 2.8 °C | 1.2 °C | 0.6 °C | 2.6 °C | 4.1 °C | 2.5 °C | 3.8 °C | -0.5 °C | 0.1 °C | 0.6 °C | 1.4 °C | 1 °C | 3.5 °C | 3.7 °C | 0.8 °C | O=C1NC(=O)C(c2c[nH]c3ccccc23)=C1c1c[nH]c2ccccc12 | -0.2 °C |
| 0.3 °C | 0.4 °C | 0.1 °C | 0.8 °C | -0.3 °C | 0.7 °C | 2 °C | 1.7 °C | -1.8 °C | 5.5 °C | 0.4 °C | -0.2 °C | 0.2 °C | 0.9 °C | 1.9 °C | 0.3 °C | -0.2 °C | CN(C)c1ccc(CC2C(=O)Nc3ccccc32)cc1 (stereo unspecified) | -0.8 °C |
| 2.4 °C | 0.8 °C | -0.5 °C | -0.1 °C | 1.5 °C | 2.3 °C | 0 °C | 1.9 °C | 0.3 °C | 7.1 °C | 0.7 °C | 0.1 °C | 0.5 °C | 4.6 °C | 7.6 °C | 4.1 °C | 1 °C | O=C1Nc2cc(Br)ccc2/C1=C1/Nc2ccccc2/C1=N\O | 3.1 °C |

— ChEMBL document CHEMBL1145498, “A systematic interaction map of validated kinase inhibitors with Ser/Thr kinases” (Proc Natl Acad Sci U S A, 2007)
